# Key:
# Experiment in all cases: relative viability (nuclei count vs DMSO), 5 days (fraction); higher = more cells survive
# [1] = compound: C1=CC2=NC=CN=C2C=C1/C=C/3\C(=O)NC(=O)S3
# Procedure, shortened: (§1)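 Viability here means nuclei in treated wells divided by nuclei in vehicle wells, reported as the median across plates. Only plates with control CV below 25% and at least one doubling passed. Lung cancer cell lines in 1536-well plates were exposed to five √10-spaced library-drug doses for 5 days and counted from 4× Hoechst images in MetaXpress.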
# [2] = compound: CCN1CCN(c2ccc(Nc3cc(N(C)C(=O)Nc4c(Cl)c(OC)cc(OC)c4Cl)ncn3)cc2)CC1 [BGJ398]
# Procedure, shortened: as §1
# [3] = compound: CCN1CCN(c2ccc(Nc3cc(N(C)C(=O)Nc4c(Cl)c(OC)cc(OC)c4Cl)ncn3)cc2)CC1 [BGJ398] + Cc1cc(Nc2cc(N3CCN(C)CC3)nc(Sc3ccc(NC(=O)C4CC4)cc3)n2)n[nH]1 [Tozasertib] (partner 0.1 µM)
# Procedure, shortened: (§2)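 Five library-drug doses in √10 steps were combined with a fixed anchor-drug dose, or a single drug was given alone, by pin tool to lung cancer cell lines in 1536-well plates the day after seeding. Nuclei were stained and counted after 5 days. Relative viability is the nuclei count in treated wells over that in vehicle wells, taken as the median of duplicate plates.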
# [4] = compound: C1=CC2=NC=CN=C2C=C1/C=C/3\C(=O)NC(=O)S3 + CC1(C)CCC(c2ccc(Cl)cc2)=C(CN2CCN(c3ccc(C(=O)NS(=O)(=O)c4ccc(N[C@H](CCN5CCOCC5)CSc5ccccc5)c(S(=O)(=O)C(F)(F)F)c4)cc3)CC2)C1 [Navitoclax] (partner 0.5 µM)
# Procedure, shortened: as §2
cell line,measurement,setting,value
UMC-11,relative viability,[1]; 0.02 µM,0.978
same,relative viability,[1]; 0.06325 µM,1
same,relative viability,[1]; 0.2 µM,1.01
same,relative viability,[1]; 0.6325 µM,0.925
same,relative viability,[1]; 2 µM,1.06
same,relative viability,[2]; 0.01 µM,0.955
same,relative viability,[2]; 0.03162 µM,1.05
same,relative viability,[2]; 0.1 µM,1.05
same,relative viability,[2]; 0.3162 µM,0.968
same,relative viability,[2]; 1 µM,0.919
same,relative viability,[3]; first compound 0.01 µM,0.2
same,relative viability,[3]; first compound 0.03162 µM,0.202
same,relative viability,[3]; first compound 0.1 µM,0.207
same,relative viability,[3]; first compound 0.3162 µM,0.206
same,relative viability,[3]; first compound 1 µM,0.235
same,relative viability,[4]; first compound 0.02 µM,0.296
same,relative viability,[4]; first compound 0.06325 µM,0.397
same,relative viability,[4]; first compound 0.2 µM,0.312
same,relative viability,[4]; first compound 0.6325 µM,0.307
same,relative viability,[4]; first compound 2 µM,0.302

# — the supplement of paper PMC10307832
